From patent publication US12539292B2, “BRM targeting compounds and associated methods of use” (Arvinas Operations, Inc., priority 2018, dated 2026)
Read-outs that look alike come from different tables or passages of the source.

Target: T1, BRM (Homo sapiens, UniProt P51531)
T1 construct: In-Cell Western Screen of BRM Degradation in SW1573 Cells; endogenous in cells; host or cells: SW1573
Test: In-cell Western screen of BRM degradation in SW1573 cells (Dmax and DC50)
Assay type: cell-based
How it was run: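 Near-infrared imaging on a LI-COR Odyssey (800 and 680 nm channels) quantifies BRM remaining in fixed SW1573 cells. Cells are dosed for 18-20 h at 0.1% final DMSO, and degradation is expressed as Dmax and DC50.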

[1] = BRM degradation, SW1573 cells, read-out: DC50
[2] = BRM degradation, SW1573 cells, tested at the top concentration of between 0.3 and 10 μM, read-out: Dmax (%) (% degraded)
[3] = target protein degradation, read-out: BRM DC50

T1 sequence (P51531 whole entry): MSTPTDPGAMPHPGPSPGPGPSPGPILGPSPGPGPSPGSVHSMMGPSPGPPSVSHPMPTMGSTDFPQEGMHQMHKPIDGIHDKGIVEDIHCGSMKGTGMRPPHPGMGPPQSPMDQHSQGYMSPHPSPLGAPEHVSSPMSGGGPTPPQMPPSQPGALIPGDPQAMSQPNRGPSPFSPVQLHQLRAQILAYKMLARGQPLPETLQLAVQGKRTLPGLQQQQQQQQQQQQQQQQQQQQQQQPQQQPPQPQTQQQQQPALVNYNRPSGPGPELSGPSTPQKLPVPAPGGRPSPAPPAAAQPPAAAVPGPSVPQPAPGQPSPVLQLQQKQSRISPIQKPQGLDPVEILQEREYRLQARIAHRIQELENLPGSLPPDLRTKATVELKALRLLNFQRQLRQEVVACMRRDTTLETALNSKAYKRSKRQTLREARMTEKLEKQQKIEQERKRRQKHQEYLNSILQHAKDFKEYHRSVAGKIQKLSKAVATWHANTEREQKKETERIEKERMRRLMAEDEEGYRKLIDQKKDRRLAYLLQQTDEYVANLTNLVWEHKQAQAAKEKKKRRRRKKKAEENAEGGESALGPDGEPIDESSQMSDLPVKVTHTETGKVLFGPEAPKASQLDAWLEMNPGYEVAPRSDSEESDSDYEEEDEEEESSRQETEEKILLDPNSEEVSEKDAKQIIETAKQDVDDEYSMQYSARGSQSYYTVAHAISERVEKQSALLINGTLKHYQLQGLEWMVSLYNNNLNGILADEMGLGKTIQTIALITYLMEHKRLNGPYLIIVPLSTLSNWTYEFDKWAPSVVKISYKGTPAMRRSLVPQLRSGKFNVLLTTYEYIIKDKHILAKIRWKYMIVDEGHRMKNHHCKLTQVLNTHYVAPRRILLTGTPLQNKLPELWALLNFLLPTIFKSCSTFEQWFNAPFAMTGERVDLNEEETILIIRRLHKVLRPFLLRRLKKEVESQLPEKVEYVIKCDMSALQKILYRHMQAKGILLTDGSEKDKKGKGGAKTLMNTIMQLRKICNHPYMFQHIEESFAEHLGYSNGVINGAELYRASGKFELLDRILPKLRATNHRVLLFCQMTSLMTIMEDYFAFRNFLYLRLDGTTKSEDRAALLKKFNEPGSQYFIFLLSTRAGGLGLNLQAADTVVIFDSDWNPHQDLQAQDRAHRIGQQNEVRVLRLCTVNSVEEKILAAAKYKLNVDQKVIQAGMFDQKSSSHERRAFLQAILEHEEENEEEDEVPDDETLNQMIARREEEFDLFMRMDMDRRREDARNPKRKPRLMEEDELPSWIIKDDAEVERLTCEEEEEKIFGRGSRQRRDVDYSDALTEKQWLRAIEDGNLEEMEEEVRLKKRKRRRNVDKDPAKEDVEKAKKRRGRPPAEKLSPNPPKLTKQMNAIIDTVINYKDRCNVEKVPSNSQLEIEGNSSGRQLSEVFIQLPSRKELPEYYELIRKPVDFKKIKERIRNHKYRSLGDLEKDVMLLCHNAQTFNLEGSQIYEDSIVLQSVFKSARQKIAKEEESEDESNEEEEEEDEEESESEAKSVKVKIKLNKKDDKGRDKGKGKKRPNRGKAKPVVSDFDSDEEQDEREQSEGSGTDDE

| Structure (SMILES) | DC50 [1] [nM] | Dmax [2] [%] | further results |
| --- | --- | --- | --- |
| Cc1ncsc1-c1ccc([C@H](C)NC(=O)[C@@H]2C[C@@H](O)CN2C(=O)[C@H](c2cc(OCCN3CCN(Cc4ccc(C(C)n5cc(-c6cc(-c7ccccc7O)nnc6N)cn5)cc4)CC3)no2)C(C)C)cc1 (stereo partly drawn) [compound 166, (2S,4R)-1-((2S)-2-(3-(2-(4-(4-(1-(4-(3-amino-6-(2-hydroxyphenyl)pyridazin-4-yl)-1H-pyrazol-1-yl)ethyl)benzyl)piperazin-1-yl)ethoxy)isoxazol-5-yl)-3-methylbutanoyl)-4-hydroxy-N-((S)-1-(4-(4-methylthiazol-5-yl)phenyl)ethyl)pyrrolidine-2-carboxamide] | 2.5 to 10 | > 75 | – |
| Cc1ncsc1-c1ccc([C@H](C)NC(=O)[C@@H]2C[C@@H](O)CN2C(=O)[C@@H](c2cc(N3CCC4(CC3)CN(CC3CCN(C[C@H]5C[C@H](Oc6cc(N7C8CCC7CN(c7cc(-c9ccccc9O)nnc7N)C8)ccn6)C5)CC3)C4)no2)C(C)C)cc1 [compound 695, (2S,4R)-1-((2R)-2-(3-(2-((1-(((1r,3r)-3-((4-(3-(3-amino-6-(2-hydroxyphenyl)pyridazin-4-yl)-3,8-diazabicyclo[3.2.1]octan-8-yl)pyridin-2-yl)oxy)cyclobutyl)methyl)piperidin-4-yl)methyl)-2,7-diazaspiro[3.5]nonan-7-yl)isoxazol-5-yl)-3-methylbutanoyl)-4-hydroxy-N-((S)-1-(4-(4-methylthiazol-5-yl)phenyl)ethyl)pyrrolidine-2-carboxamide] | < 2.5 | – | Dmax (BRM degradation, SW1573 cells, read-out: Dmax (% degraded)): > 75% |
| Cc1ncsc1-c1ccc([C@@H](NC(=O)[C@@H]2C[C@@H](O)CN2C(=O)[C@@H](c2cc(OCCN3CCN(CCOc4cc(N5C6CCC5CN(c5cc(-c7ccccc7O)nnc5N)C6)ccn4)CC3)no2)C(C)C)C(=O)N(C)C)cc1 [compound 131, (2S,4R)-1-((2R)-2-(3-(2-(4-(2-((4-(3-(3-amino-6-(2-hydroxyphenyl)pyridazin-4-yl)-3,8-diazabicyclo[3.2.1]octan-8-yl)pyridin-2-yl)oxy)ethyl)piperazin-1-yl)ethoxy)isoxazol-5-yl)-3-methylbutanoyl)-N-((R)-2-(dimethylamino)-1-(4-(4-methylthiazol-5-yl)phenyl)-2-oxoethyl)-4-hydroxypyrrolidine-2-carboxamide] | < 2.5 | – | Dmax (BRM degradation, SW1573 cells, when tested at the top concentration of between 0.3 and 10 μM, read-out: Dmax (%) (% degraded)): > 75% |
| Cc1ncsc1-c1ccc([C@H](C)NC(=O)[C@@H]2C[C@@H](O)CN2C(=O)[C@H](c2cc(OC/C=C/c3ccc(O[C@H]4C[C@H](Oc5cc(N6C7CCC6CN(c6cc(-c8ccccc8O)nnc6N)C7)ccn5)C4)cn3)no2)C(C)C)cn1 [compound 206, (2S,4R)-1-((2S)-2-(3-(((E)-3-(5-((1r,3S)-3-((4-(3-(3-amino-6-(2-hydroxyphenyl)pyridazin-4-yl)-3,8-diazabicyclo[3.2.1]octan-8-yl)pyridin-2-yl)oxy)cyclobutoxy)pyridin-2-yl)allyl)oxy)isoxazol-5-yl)-3-methylbutanoyl)-4-hydroxy-N-((S)-1-(6-(4-methylthiazol-5-yl)pyridin-3-yl)ethyl)pyrrolidine-2-carboxamide] | 10 to 30 | > 75 | – |
| Cc1cnc(C)n1-c1ccc([C@H](C)NC(=O)[C@@H]2C[C@@H](O)CN2C(=O)[C@H](c2cc(OCCN3CCC(O[C@H]4C[C@H](Oc5cc(N6C7CCC6CN(c6cc(-c8ccccc8O)nnc6N)C7)ccn5)C4)CC3)no2)C(C)C)cc1 [compound 375, (2S,4R)-1-((2S)-2-(3-(2-(4-((1r,3S)-3-((4-(3-(3-amino-6-(2-hydroxyphenyl)pyridazin-4-yl)-3,8-diazabicyclo[3.2.1]octan-8-yl)pyridin-2-yl)oxy)cyclobutoxy)piperidin-1-yl)ethoxy)isoxazol-5-yl)-3-methylbutanoyl)-N-((S)-1-(4-(2,5-dimethyl-1H-imidazol-1-yl)phenyl)ethyl)-4-hydroxypyrrolidine-2-carboxamide] | – | – | DC50 [3]: > 30 nM |
| Cc1ncsc1-c1ccc([C@H](C)NC(=O)[C@@H]2C[C@@H](O)CN2C(=O)[C@@H](c2cc(OCCOCCOc3cc(N4C5CCC4CN(c4cc(-c6ccccc6O)nnc4N)C5)ccn3)no2)C(C)C)cc1 [compound 357, (2S,4R)-1-((2R)-2-(3-(2-(2-((4-(3-(3-amino-6-(2-hydroxyphenyl)pyridazin-4-yl)-3,8-diazabicyclo[3.2.1]octan-8-yl)pyridin-2-yl)oxy)ethoxy)ethoxy)isoxazol-5-yl)-3-methylbutanoyl)-4-hydroxy-N-((S)-1-(4-(4-methylthiazol-5-yl)phenyl)ethyl)pyrrolidine-2-carboxamide] | – | – | Dmax (SW1573, % degraded, when tested at the top concentration of between 0.3 and 10 μM, read-out: BRM Dmax (%)): > 75%; DC50 [3]: < 2.5 nM |
| Cc1ncsc1-c1ccc([C@H](C)NC(=O)[C@@H]2C[C@@H](O)CN2C(=O)[C@H](c2cc(CCCN3CCN(CCOc4cc(N5C6CCC5CN(c5cc(-c7ccccc7O)nnc5N)C6)ccn4)CC3)no2)C(C)C)cc1 [compound 170, (2S,4R)-1-((2S)-2-(3-(3-(4-(2-((4-(3-(3-amino-6-(2-hydroxyphenyl)pyridazin-4-yl)-3,8-diazabicyclo[3.2.1]octan-8-yl)pyridin-2-yl)oxy)ethyl)piperazin-1-yl)propyl)isoxazol-5-yl)-3-methylbutanoyl)-4-hydroxy-N-((S)-1-(4-(4-methylthiazol-5-yl)phenyl)ethyl)pyrrolidine-2-carboxamide] | 2.5 to 10 | > 75 | – |
| Cc1ncsc1-c1cc(F)c([C@H](C)NC(=O)[C@@H]2C[C@@H](O)CN2C(=O)[C@H](c2cc(OCCN3CCC(O[C@H]4C[C@H](Oc5cc(N6C7CCC6CN(c6cc(-c8ccccc8O)nnc6N)C7)ccn5)C4)CC3)no2)C(C)C)cn1 [compound 540, (2S,4R)-1-((2S)-2-(3-(2-(4-((1r,3S)-3-((4-(3-(3-amino-6-(2-hydroxyphenyl)pyridazin-4-yl)-3,8-diazabicyclo[3.2.1]octan-8-yl)pyridin-2-yl)oxy)cyclobutoxy)piperidin-1-yl)ethoxy)isoxazol-5-yl)-3-methylbutanoyl)-N-((S)-1-(4-fluoro-6-(4-methylthiazol-5-yl)pyridin-3-yl)ethyl)-4-hydroxypyrrolidine-2-carboxamide] | – | – | DC50 (BRM degradation, SW1573 cells, Table 2D, read-out: *DC50): > 30 nM |
| Cc1ncsc1-c1ccc([C@H](C)NC(=O)[C@@H]2C[C@@H](O)CN2C(=O)[C@@H](c2cc(OCCC3CCN(C[C@H]4C[C@H](Oc5cc(N6C7CCC6CN(c6cc(-c8ccccc8O)nnc6N)C7)ccn5)C4)CC3)no2)C(C)C)cn1 [compound 288, (2S,4R)-1-((2R)-2-(3-(2-(1-(((1r,3R)-3-((4-(3-(3-amino-6-(2-hydroxyphenyl)pyridazin-4-yl)-3,8-diazabicyclo[3.2.1]octan-8-yl)pyridin-2-yl)oxy)cyclobutyl)methyl)piperidin-4-yl)ethoxy)isoxazol-5-yl)-3-methylbutanoyl)-4-hydroxy-N-((S)-1-(6-(4-methylthiazol-5-yl)pyridin-3-yl)ethyl)pyrrolidine-2-carboxamide] | < 2.5 | > 75 | – |
| Cc1nccn1-c1ccc([C@H](C)NC(=O)[C@@H]2C[C@@H](O)CN2C(=O)[C@@H](c2cc(OCC#Cc3ccc(O[C@H]4C[C@H](Oc5cc(N6C7CCC6CN(c6cc(-c8ccccc8O)nnc6N)C7)ccn5)C4)cn3)no2)C(C)C)cc1 [compound 234, (2S,4R)-1-((2R)-2-(3-((3-(5-((1r,3R)-3-((4-(3-(3-amino-6-(2-hydroxyphenyl)pyridazin-4-yl)-3,8-diazabicyclo[3.2.1]octan-8-yl)pyridin-2-yl)oxy)cyclobutoxy)pyridin-2-yl)prop-2-yn-1-yl)oxy)isoxazol-5-yl)-3-methylbutanoyl)-4-hydroxy-N-((S)-1-(4-(2-methyl-1H-imidazol-1-yl)phenyl)ethyl)pyrrolidine-2-carboxamide] | < 2.5 | > 75 | – |
